Molecular target: Protease (Human immunodeficiency virus 1, UniProt Q9YQ12)
Test: Inhibition of recombinant HIV1 protease

Sequence of Protease (Q9YQ12 whole entry): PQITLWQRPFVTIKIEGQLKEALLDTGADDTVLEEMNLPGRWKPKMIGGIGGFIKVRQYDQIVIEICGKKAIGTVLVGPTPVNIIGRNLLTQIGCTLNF

Row | Structure (SMILES) | IC50
1 | CC(=O)OC[C@]12CC[C@H](O)C(C)(C)[C@@H]1CCC1=C2CC[C@]2(C)[C@@H]([C@H](C)C(O)C/C=C(/C)CO)CC[C@@]12C (stereo partly drawn) [COLOSSOLACTONE A] | 75.5 µM
2 | CC(=O)O[C@@H]1C[C@H]([C@H](C)[C@H]2CC=C(C)C(=O)O2)[C@@]2(C)CCC3=C(CC[C@@H]4C(=C3)C=CC(=O)OC4(C)C)[C@]12C [COLOSSOLACTONE E] | 15.3 µM
3 | COC(=O)CC[C@]1(COC(C)=O)C2=C(CC[C@H]1C(C)(C)O)[C@]1(C)CC[C@H]([C@H](C)[C@@H](C/C=C(/C)C(=O)O)OC(C)=O)[C@@]1(C)CC2 [COLOSSOLACTONE V] | 14.5 µM
4 | CC1=CC[C@H]([C@@H](C)[C@H]2CC[C@@]3(C)C4=C(C=C5C=CC(=O)OC(C)(C)[C@@H]5CC4)CC[C@]23C)OC1=O [SCHISANLACTONE A] | 10.8 µM

Results, then the molecule that gave them:

Row | IC50 | Structure (SMILES)
5 | 9.28 µM | CC(=O)O[C@@H]1C[C@H]([C@H](C)[C@H]2CC=C(C)C(=O)O2)[C@@]2(C)CCC3=C(CC[C@]4(O)C(=C3)C=CC(=O)OC4(C)C)[C@]12C [COLOSSOLACTONE G]
6 | 58.3 µM | CC(=O)O[C@@H]1C[C@H]([C@H](C)[C@@H]2OC(=O)C(C)=C[C@H]2O)[C@@]2(C)CCC3=C(CC[C@@H]4C(=C3)C=CC(=O)OC4(C)C)[C@]12C [COLOSSOLACTONE VIII]
7 | 24.7 µM | COC(=O)CC[C@]1(COC(C)=O)C2=C(CC[C@H]1C(C)(C)O)[C@]1(C)CC[C@H]([C@H](C)[C@H]3CC=C(C)C(=O)O3)[C@@]1(C)CC2 [COLOSSOLACTONE VII]
8 | > 162 µM | COC(=O)CC[C@]1(COC(C)=O)C2=CC[C@]3(C)[C@@H]([C@H](C)[C@@H](C/C=C(/C)C(=O)O)OC(C)=O)CC[C@@]3(C)C2=CC[C@H]1C(C)(C)O [COLOSSOLACTONE VI]

— ChEMBL document CHEMBL1157512, “Anti-HIV-1 protease activity of lanostane triterpenes from the vietnamese mushroom Ganoderma colossum” (J Nat Prod, 2008)
